Earlier results as cited in patent publication US8106028B2, “MicroRNA-21 antagonists and its target PDCD4 for use in the treatment of a glioma” (Trustees of Dartmouth College, priority 2009, dated 2012).

Tested on: PDCD4
Details: breast cancer cells; Afonja, et al. (2004)

CC1(C)CCC(C)(C)c2cc(C(=O)Nc3ccc(C(=O)O)cc3)ccc21 [Am580]
expression of PDCD4: stimulate the expression of PDCD4
